The text below walks through data of patent US8552050B2, “Activators of pyruvate kinase M2 and methods of treating disease” (Beth Israel Deaconess Medical Center, priority 2007, dated 2013).

One assay concerns M1 and M2 rescue cells. The assay can be described thus: Proliferation of M1 and M2 rescue cells with oligomycin. Type of assay: cell-based, human. Particulars: subsaturating oligomycin (125 nM); M1 vs M2 rescue cells. How it is done: To examine whether PKM2 expression enhances tumor cell growth under lowered oxygen and glucose conditions, proliferation rates of the M1 and M2 rescue cells (M2 knockdown cells expressing mM1 or mM2) were measured in physiologic glucose levels and hypoxic oxygen. […] The percent decrease in oxygen consumption following addition of subsaturating amounts of oligomycin, a specific inhibitor of mitochondrial ATP synthase, was the same in both the M1 and M2 cells.
5×10^4 cells were seeded in triplicate in 6-well plates and accurate cell counts were obtained every 24 hours using a Coulter particle analyzer for a 3-5 day period. Time zero was taken 16 hours post-seeding. Cells grown in low oxygen were incubated in a sealed hypoxia chamber set to 0.5% oxygen. Cells grown in the presence of oligomycin were treated with 125 nM oligomycin at time zero.

In a further assay the target is T1, recombinant PKM1 (Homo sapiens, UniProt P14618).
T1 construct: made in house
T1 sequence (P14618 1-531 isoform P14618-2, species assumed): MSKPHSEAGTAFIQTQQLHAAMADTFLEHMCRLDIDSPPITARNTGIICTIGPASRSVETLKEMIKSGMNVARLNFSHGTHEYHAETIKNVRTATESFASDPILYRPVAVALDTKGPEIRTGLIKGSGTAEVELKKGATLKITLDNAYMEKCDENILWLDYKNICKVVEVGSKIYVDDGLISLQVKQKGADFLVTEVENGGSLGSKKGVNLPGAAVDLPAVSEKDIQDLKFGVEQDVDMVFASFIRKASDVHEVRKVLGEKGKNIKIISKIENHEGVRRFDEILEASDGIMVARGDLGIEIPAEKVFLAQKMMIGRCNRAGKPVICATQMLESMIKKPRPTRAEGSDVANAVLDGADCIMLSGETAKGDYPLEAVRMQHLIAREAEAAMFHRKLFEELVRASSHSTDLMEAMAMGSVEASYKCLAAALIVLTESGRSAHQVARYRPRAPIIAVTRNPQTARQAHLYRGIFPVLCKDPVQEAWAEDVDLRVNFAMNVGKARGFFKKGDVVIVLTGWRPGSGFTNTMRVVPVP
In words: 14C-FBP retention on protein after dialysis, scintillation counting. Particulars: ~10 μM 14C-FBP, 1 μM protein. Format: binding. How it is done: (§1) However, FBP concentrations following protein purification would be orders of magnitude lower than this value. […] The PKM1, PKM2, and no-protein control were incubated with ^14C-FBP for 30 minutes at room temperature and then […] dialyzed against >2 L of buffer using 10,000 MWCO dialysis cassettes (Pierce) for at least 7 hours. After dialysis, samples were recovered and the amount of ^14C-FBP retained in each dialysis cassette was determined by scintillation counting. […] Upon further analysis, it was estimated that ^14C FBP is retained at roughly half a mole per mole on the PKM2 protein.

The target in assay [1] is T2, PKM2 (Homo sapiens, UniProt P14618). The assay can be described thus: PKM2 activator assay, LDH-coupled, no FBP added. Format: biochemical. How it is done:
For the activator assays, a candidate compound (2 μl 100×) was added into a well. In a control well, 2 μl of DMSO was added in place of the candidate compound. […] The mixture incubated at room temperature for 5 minutes. Immediately prior to measurement readings, 10 μl PEP (0.5 mM) were added to each well. No FBP was added.
Target sequence in this assay (P14618 whole entry): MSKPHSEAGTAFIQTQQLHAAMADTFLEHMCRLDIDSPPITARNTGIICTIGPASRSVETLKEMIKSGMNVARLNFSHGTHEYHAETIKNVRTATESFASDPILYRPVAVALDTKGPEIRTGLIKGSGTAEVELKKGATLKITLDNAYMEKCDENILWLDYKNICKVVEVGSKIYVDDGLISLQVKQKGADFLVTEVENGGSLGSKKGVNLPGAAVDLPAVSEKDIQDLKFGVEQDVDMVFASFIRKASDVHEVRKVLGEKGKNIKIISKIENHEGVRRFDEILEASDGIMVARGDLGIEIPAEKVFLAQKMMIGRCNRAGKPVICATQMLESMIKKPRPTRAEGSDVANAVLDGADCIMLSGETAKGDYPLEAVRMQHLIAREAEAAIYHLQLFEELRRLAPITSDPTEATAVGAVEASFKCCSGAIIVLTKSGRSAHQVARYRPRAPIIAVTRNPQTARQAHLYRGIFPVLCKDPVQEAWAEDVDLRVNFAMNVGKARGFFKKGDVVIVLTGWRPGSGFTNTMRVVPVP

Assay [2] deals with T2, PKM2. To be noted: Yamada and Noguchi 1999; cited from earlier work.
Target sequence in this assay (P14618 whole entry, species assumed): as the sequence (P14618 whole entry) above
The target of assay [3] is T2, PKM2. The assay can be described thus: 14C-FBP retention on protein after dialysis, scintillation counting. Format: binding. Set-up: His6 (N); made in house; host or cells: E. coli BL21(DE3)pLysS. How it is done: as §1
Target sequence in this assay (P14618 whole entry): as above
The target in assay [4] is T2, PKM2. In words: FBP competition for binding of recombinant PKM2 to phosphoTyr peptide affinity matrix. Set-up: His6 (N); made in house; host or cells: E. coli BL21(DE3)pLysS. To be noted: FIG. 2b. The method, then: To determine if the FBP binding pocket on PKM2 coordinates phosphoTyr peptide binding, it was assessed whether FBP could compete for binding of PKM2 to a phosphoTyr peptide library column. Recombinant protein was synthesized by cloning human PKM2 into a pET28a vector (Novagen) at NdeI and BamHI sites and PKM2 was expressed as a N-terminal His6 tag fusion protein. The protein was expressed and purified with a standard protocol. Briefly, pET28a-PKM2 was transformed into BL2 I (DE3)pLysS cells and grown to an OD600 of 0.8 and induced with 0.5 mM IPTG for seven hours at room temperature. Cells were lysed using lysozyme in lysis buffer (50 mM Tris, pH 8.0, 10 mM MgCl2, 200 mM NaCl, 100 mM KCl, 20% glycerol, 10 mM imidazole, 1 mM PMSF). The cell lysate was cleared by centrifugation. PKM2 was purified by batch binding to Ni—NTA resin (Qiagen). The resin was then washed with lysis buffer containing 30 mM imidazole for 200 column volumes, and His6-tag-PKM2 was eluted with 250 mM imidazole. The protein was dialyzed overnight at 4° C. to remove the imidazole.
Recombinant PKM2 was incubated with increasing amounts of FBP and then flowed over the phosphoTyr peptide affinity matrix. 20 μM FBP was able to compete for binding of recombinant PKM2 to phosphoTyr peptides (FIG. 2b). […]
Target sequence in this assay (P14618 whole entry): as above

Assay [5] addresses T2, PKM2. In words: Recombinant PKM2 activity with P-M2tide / NP-M2tide, LDH-coupled assay. Type of assay: biochemical. The arrangement: His6 (N); made in house; host or cells: E. coli BL21(DE3)pLysS. To be noted: dose-dependent; FIG. 6a. The text has this: Multiple phosphoTyr peptides comprising in vivo phosphorylation sites previously identified on metabolic proteins (Villen et al., Proc. Natl. Acad. Sci. USA 104: 1488-93, 2007) were synthesized. Several of these phosphoTyr peptides, as well as multiple phosphoTyr peptides designed after known tyrosine kinase motifs, were also shown to inhibit PKM2 activity (FIG. 6b).
Target sequence in this assay (P14618 whole entry): as above

The target of assay [6] is T2, PKM2. In words: Release of 14C-FBP from FBP-loaded recombinant PKM2 after peptide exposure and dialysis. Set-up: His6 (N); made in house; host or cells: E. coli BL21(DE3)pLysS. Format: binding. To be noted: 14C counts retained after dialysis; FIG. 4e. The method, then:
To examine the effect of phosphoTyr peptide binding on FBP-bound PKM2, a peptide-binding motif for PKM2 was obtained using traditional peptide library screening. Both the phosphorylated (P-M2tide) and unphosphorylated (NP-M2tide) versions of the optimal peptide were synthesized: P-M2tide (GGAVDDDpYAQFANGG SEQ ID NO:1) and NP-M2tide (GGAVDDDYAQFANGG SEQ ID NO:2) (FIG. 5). The FBP-loaded recombinant PKM2 was incubated with P-M2tide or NP-M2tide, the unbound FBP and peptide were dialyzed away, and the counts retained on the PKM2 were measured.
Target sequence in this assay (P14618 whole entry): as above

The test system of assay [7] is PKM2-expressing cells. The assay can be described thus: Cellular oxygen consumption after acute pervanadate stimulation. Type of assay: cell-based. How it is done:
(§2) Consistent with this model, a 25% increase in the incorporation of metabolites from ^14C-glucose into lipids upon pervanadate-treatment of PKM2-expressing cells was observed. […] A similar increase in the incorporation of ^14C-glucose metabolites into lipids was observed upon pervanadate stimulation of 293 cells.
Cellular oxygen consumption rates were measured using a water-jacketed (37° C.) anaerobic chamber fitted with a polarographic oxygen electrode as described previously (Vander Heiden et al, Mol Cell Biol 21: 5899-912, 2001). The electrode was calibrated with 150 mM NaCl equilibrated to room air at 37° C. (corresponding to 199 nmol O2/ml).

The subject of the next assay is pyruvate kinase. To be noted: pervanadate stimulation.
Another assay has as its target T3, Flag-tagged PKM2 (Mus musculus, UniProt P52480).
T3 construct: expressed in transfected cells
In words: 3H bound to immunoprecipitated Flag-tagged PKM2 in cells cultured with 3H-glucose. Particulars: 15-minute treatment with pervanadate. Format: cell-based. How it is done: Next, the ability of phosphoTyr protein binding to catalyze the release of FBP from PKM2 in vivo was tested. To address this, cells were cultured overnight with ^3H-glucose that can be metabolized to ^3H-FBP. Flag-tagged PKM2 was immunoprecipitated and the amount of ^3H bound to PKM2 with and without pervanadate-treatment was determined by scintillation counting.

Assay [8] relates to PKM2-expressing cells. In words: Incorporation of metabolites from 14C-glucose into lipids. Type of assay: cell-based.
Source text: as §2

The target in assay [9] is T2, PKM2. In words: PKM2 inhibition assay, LDH-coupled, FBP added in excess. Format: biochemical. To be noted: read-out: Inhibition of PKM2 Activity. How it is done:
For the inhibition assays, a candidate compound (2 μl 100×) was added into a well. In a control well, 2 μl of DMSO was added in place of the candidate compound. […] The mixture incubated at room temperature for 30 minutes. Immediately prior to measurement readings, 10 μl PEP (0.5 mM) and 2 μl FBP/H2O (0.5 μM) were added to each well. The FBP was added in excess.
Target sequence in this assay (P14618 whole entry): as above

Square brackets hold non-standard residues; d marks the D form. Ends that are not written are not given here. pY = N[C@@H](Cc1ccc(OP(=O)(O)O)cc1)C(=O)O

T3 sequence (P52480 whole entry): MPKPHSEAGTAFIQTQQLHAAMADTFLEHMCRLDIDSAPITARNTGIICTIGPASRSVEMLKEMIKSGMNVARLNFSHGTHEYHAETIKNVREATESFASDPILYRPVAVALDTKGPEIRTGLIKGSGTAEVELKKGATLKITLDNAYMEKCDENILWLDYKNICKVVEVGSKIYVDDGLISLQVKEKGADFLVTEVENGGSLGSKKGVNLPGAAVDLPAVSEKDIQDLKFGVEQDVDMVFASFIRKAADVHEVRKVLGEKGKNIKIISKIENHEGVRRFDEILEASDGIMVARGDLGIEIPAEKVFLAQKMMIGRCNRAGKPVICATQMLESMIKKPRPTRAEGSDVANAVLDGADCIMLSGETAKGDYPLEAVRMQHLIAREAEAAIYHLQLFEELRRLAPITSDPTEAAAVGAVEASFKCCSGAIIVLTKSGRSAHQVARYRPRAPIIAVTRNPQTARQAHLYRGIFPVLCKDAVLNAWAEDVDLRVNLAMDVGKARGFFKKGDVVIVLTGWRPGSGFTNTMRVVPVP
Procedure for pyruvate kinase: Pyruvate kinase activity was measured according to published methods by a continuous assay coupled to lactate dehydrogenase (LDH). The change in absorbance at 340 nm due to oxidation of NADH was measured using a Victor^3 1420 Multilabel Counter spectrophotometer (PerkinElmer, Inc.). Kinetic assays for activity determinations contained recombinant PK (20-100 ng) or cell lysate (1-2 μg), Tris (pH 7.5) (50 mM), KCl (100 mM), MgCl2 (5 mM), ADP (0.6 mM), PEP (0.5 mM), NADH (180 pM), FBP (10 pM), and LDH (8 units).

Turning to `CC[C@H]1/C=C/C=C/C[C@@H](C)[C@H](O)[C@@](C)(O)C(=O)[C@@H](C)[C@H](O)[C@@H](C)C(=O)[C@@H](C)[C@H](O)[C@@H](C)/C=C/C(=O)O[C@@H]2[C@H](C)[C@H](CC1)O[C@]1(CC[C@H](C)[C@H](C[C@@H](C)O)O1)[C@H]2C` [oligomycin], the “effect on proliferation rate” value with M1 and M2 rescue cells is listed as “affected the proliferation rate of the M1 cells significantly more than the M2 cells”.

Regarding `O=C(COP(=O)(O)O)[C@@H](O)[C@H](O)[C@H](O)COP(=O)(O)O` [FBP, fructose-1,6-bisphosphate], the “14C counts retained in PKM1 sample” value at recombinant PKM1 was “same amount of ^14C counts as the no-protein control sample”. For the same compound, the “% Activation of PKM2 by FBP” value is reported as 62% at PKM2 [1] (0.1 μM FBP), 89% at PKM2 [1] (0.3 μM FBP) and 114% on PKM2 [1] (1 μM FBP). The “Ka values for FBP binding to PKM2” value at PKM2 [2] is “micromolar range”. Also, at PKM2 [3] (estimated upon further analysis), the “14C FBP retained on the PKM2 protein” value is given as “roughly half”. Also, the “more 14C counts than PKM1 sample and no-protein control” value at PKM2 [3] (~10 μM 14C-FBP, 1 μM protein, after dialysis) is 52±5%. In addition, the “FBP concentration able to compete for binding of recombinant PKM2 to phosphoTyr peptides” value on PKM2 [4] worked out at 20 µM.

Take “GGAVDDDpYAQFANGG (GGAVDDD[pY]AQFANGG) [P-M2tide]”: the “inhibition of PKM2 activity” value with PKM2 [5] is on record as 20-30%. Moreover, in the assay with PKM2 [6], the “FBP retained on / released from PKM2” value was “release of the majority of the FBP”.

GGAVDDDYAQFANGG [NP-M2tide]: the “FBP retained on / released from PKM2” value with PKM2 [6] is listed as “significant amount of FBP remaining bound to PKM2”.

Consider pervanadate, for which the results for the “decrease in oxygen consumption” value with PKM2-expressing cells [7] (M2KE-expressing cells) and in the assay on PKM2-expressing cells [7] (PKM2-expressing cells) were 15±4% and 36±1%, respectively. The “decrease in total pyruvate kinase activity” value with pyruvate kinase (293, A549 and H1299 cells, FIG. 6c) is 20-30%. The “pyruvate kinase activity in M1-, M2-, M2KE-, L-expressing knockdown cells” value in the assay with pyruvate kinase (H1299 knockdown/rescue cells, FIG. 6g) is recorded as “specific inhibition of pyruvate kinase activity only in the wild-type M2-expressing cells”. Also, the “reduction in 3H that immunoprecipitated with PKM2” value on Flag-tagged PKM2 is 30±13%. The “increase in the incorporation of metabolites from 14C-glucose into lipids” value with PKM2-expressing cells [8] (PKM2-expressing cells) is 25%. In addition, the “14C incorporation into lipids” value in the assay with PKM2-expressing cells [8] (cells expressing the KE point mutant of PKM2) is on record as “no significant increase”.

`Cc1ccc(C)n1-c1ccc(O)c(C(=O)O)c1`: the inhibition at 10 µM at PKM2 [9] (0.01 mM compound) was 21%. At PKM2 [9] (0.1 mM compound), the inhibition at 100 µM is 36%. In addition, the inhibition at 1000 µM on PKM2 [9] (1 mM compound) was found to be 55%.

The inhibition is the drop in the measured response relative to a control, in per cent.
